From paper PMC3722588 (Journal of the American Chemical Society, 2013)

Target: T184C MMP12 catalytic domain (Mus musculus, UniProt P34960, T184C)
Assay: Gel labeling of recombinant enzyme spiked in rat liver lysates
Assay type: binding
Details: 10 μM pretreatment before TND124, rat liver lysates

T184C MMP12 catalytic domain, sequence (P34960 29-267 T184C): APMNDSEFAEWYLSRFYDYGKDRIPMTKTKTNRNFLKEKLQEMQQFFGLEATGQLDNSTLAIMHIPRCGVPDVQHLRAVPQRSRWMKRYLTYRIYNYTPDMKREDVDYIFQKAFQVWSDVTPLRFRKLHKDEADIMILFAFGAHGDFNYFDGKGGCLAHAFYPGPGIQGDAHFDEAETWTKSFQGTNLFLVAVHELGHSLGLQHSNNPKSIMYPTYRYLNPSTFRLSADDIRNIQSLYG

SMILES: CNC(=O)[C@H](Cc1c[nH]c2ccccc12)NC(=O)[C@@H](CC(=O)NO)CC(C)C [GM6001]
- Blocking of TND124 labeling by pretreatment: completely blocked labeling
